Counter-ions that a name gives are not always drawn.
Experiment: RP, Waters ACQUITY UPLC BEH C18, 38 °C, 0.24 mL/min; A: water + 0.1% formic acid, pH 3; B: acetonitrile + 0.1% formic acid, pH 3; gradient (min/%B) 0/0 0.25/0 0.4/9 0.8/17 1.9/100 2.1/100 2.11/0 3/0
Conditions: stereoisomer not certain

Structure (SMILES) | LC retention time [min]
CC(=O)NC1C(O)CC(O)(C(=O)O)OC1C(O)C(O)CO (configuration not stated) [N-acetylneuraminic acid,Type IV-S,Synthetic] | 0.18
CC(=O)Oc1ccc2c(C)cc(=O)oc2c1 [4-methylumbelliferyl acetate] | 1.69
COc1ccc(C=CC(=O)O)cc1 [4-Methoxycinnamic acid] | 1.65
CS(=O)CCCCN=C=S (racemic) [D,L-sulforaphane] | 1.44
COc1cc(CNC(=O)CCCCCCC(C)C)ccc1O [Dihydrocapsaicin] | 2
NC(CCSCC(N)C(=O)O)C(=O)O (stereo not drawn) [L(+)-Cystathionine] | 0.16
O=C(O)Cc1ccc(O)c(O)c1 [3,4-dihydroxyphenylacetic acid] | 1.16
CNC1(C)C2CCC(C2)C1(C)C (configuration not stated) [Mecamylamine hydrochloride] | 1.35
O=c1c(O[C@@H]2O[C@H](CO)[C@@H](O)[C@H](O)[C@H]2O)c(-c2ccc(O[C@@H]3O[C@H](CO)[C@@H](O)[C@H](O)[C@H]3O)c(O)c2)oc2cc(O)cc(O)c12 [Quercetin-3,4'-O-di-beta-glucopyranoside] | 1.32
O=C(O)[C@@H]1C[C@@H](O)CN1 [trans-4-Hydroxy-L-proline] | 0.17
O=C(O)c1cc(O)ccc1O [2,5-dihydroxy benzoic acid] | 1.25
NCCS(=O)(=O)O [Taurine] | 0.16
NCC(=O)CCC(=O)O [delta-Aminolevulinic acid hydrochloride] | 0.18
[NH3+]CCCCCC(=O)[O-] [6-Aminohexanoic acid] | 0.41
Nc1c(O)cccc1C(=O)O [3-Hydroxyanthranilic acid] | 1.13
COc1ccc(C2CC(=O)c3c(O)cc(OC4OC(CO)C(O)C(O)C4OC4OC(C)C(O)C(O)C4O)cc3O2)cc1 (configuration not stated) [Poncirin] | 1.56
Nc1ccnc(=O)[nH]1 [Cytosine] | 0.19
